These results are taken from US5593984A, “Cephalosporin derivatives” (Yuhan Corporation, priority 1992, dated 1997).

In experiment [1] the test system is Gram-positive bacteria, in particular, Staphylococcus species. Conditions: background art; cited from earlier work.
The next experiment has as its system E. coli NIHJ JC-2. In words: MIC by agar dilution, E. coli NIHJ JC-2. It counts as cell-based. Particulars: Escherichia coli, NIHJJC2, 17 h, read-out: Minimal Inhibitory Concentration (MIC). In short, it runs like this: (§1)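 Two-fold dilutions of compound were dispersed in Mueller-Hinton agar, inoculated with test strain at 10^6 CFU per ml, and incubated at 35°-37° C. for 17±1 hours; MIC read from agar dilution.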

In the next experiment the test system is E. coli DY-1. Briefly: MIC by agar dilution, E. coli DY-1. The format is cell-based. Particulars: Escherichia coli, DY1, 17 h, read-out: Minimal Inhibitory Concentration (MIC). In short, it runs like this:
as §1

The next experiment has as its system M. morganii DY-1. Briefly: MIC by agar dilution, M. morganii DY-1. The format is cell-based. Conditions: Morganella morganii, DY1, 17 h, read-out: Minimal Inhibitory Concentration (MIC). The method in brief: as §1
For experiment [2], the system named is Ser. marcescens IFO 12648. In words: MIC by agar dilution, Ser. marcescens IFO 12648. The format is cell-based. Conditions: Serratia marcescens, IFO12648, 17 h, read-out: Minimal Inhibitory Concentration (MIC). In short, it runs like this: as §1
Another experiment relates to Staph. aureus C-5216. In words: MIC by agar dilution, Staph. aureus C-5216. Particulars: Staphylococcus aureus, C5216, 17 h, Mueller-Hinton agar, read-out: Minimal Inhibitory Concentration (MIC). It counts as cell-based. The method in brief:
as §1

Another experiment deals with Ent. cloacae IFO 13535. In words: MIC by agar dilution, Ent. cloacae IFO 13535. Particulars: Enterobacter cloacae, IFO13535, 17 h, read-out: Minimal Inhibitory Concentration (MIC). The format is cell-based. In short, it runs like this:
as §1

In a further experiment the test system is Staph. aureus C-5113. Briefly: MIC by agar dilution, Staph. aureus C-5113. It counts as cell-based. Conditions: Staphylococcus aureus, C5113, 17 h, Mueller-Hinton agar, read-out: Minimal Inhibitory Concentration (MIC). In short, it runs like this:
as §1

In a further experiment the test system is Staph. aureus C-57. Briefly: MIC by agar dilution, Staph. aureus C-57. It counts as cell-based. Conditions: Staphylococcus aureus, C57, 17 h, Mueller-Hinton agar, read-out: Minimal Inhibitory Concentration (MIC). The method in brief:
as §1

Experiment [3] concerns Ps. aeruginosa ATCC 10145. Briefly: MIC by agar dilution, Ps. aeruginosa ATCC 10145. It counts as cell-based. Conditions: Pseudomonas aeruginosa, ATCC10145, 17 h, Mueller-Hinton agar, read-out: Minimal Inhibitory Concentration (MIC). The method in brief:
as §1

Experiment [4] has as its system S. epidermidis ATCC 12228. Briefly: MIC by agar dilution, S. epidermidis ATCC 12228. The format is cell-based. Particulars: Staphylococcus epidermidis, ATCC12228, 17 h, read-out: Minimal Inhibitory Concentration (MIC). In short, it runs like this: as §1
The next experiment has as its system Staph. aureus ATCC 6538P. Briefly: MIC by agar dilution, Staph. aureus ATCC 6538P. Conditions: Staphylococcus aureus, ATCC6538P, 17 h, read-out: Minimal Inhibitory Concentration (MIC). The format is cell-based. In short, it runs like this:
as §1

The next experiment has as its system Prov. stuartii IFO 12930. In words: MIC by agar dilution, Prov. stuartii IFO 12930. The format is cell-based. Particulars: Providencia stuartii, IFO12930, 17 h, Mueller-Hinton agar, read-out: Minimal Inhibitory Concentration (MIC). In short, it runs like this:
as §1

The subject of another experiment is B. subtilis ATCC 6633. In words: MIC by agar dilution, B. subtilis ATCC 6633. It counts as cell-based. Particulars: Bacillus subtilis, ATCC6633, 17 h, read-out: Minimal Inhibitory Concentration (MIC). In short, it runs like this: as §1
The next experiment relates to E. coli No. 29. In words: MIC by agar dilution, E. coli No. 29. The format is cell-based. Particulars: Escherichia coli, read-out: Minimal Inhibitory Concentration (MIC). The method in brief: as §1
In a further experiment the test system is Ps. aeruginosa DY-2. Briefly: MIC by agar dilution, Ps. aeruginosa DY-2. Particulars: Pseudomonas aeruginosa, DY2, 17 h, read-out: Minimal Inhibitory Concentration (MIC). It counts as cell-based. The method in brief: as §1
Another experiment has as its system Staph. aureus Smith. In words: MIC by agar dilution, Staph. aureus Smith. It counts as cell-based. Particulars: Staphylococcus aureus, 17 h, Mueller-Hinton agar, read-out: Minimal Inhibitory Concentration (MIC). The method in brief: as §1
The subject of the next experiment is K. pneumoniae NCTC 9632. In words: MIC by agar dilution, K. pneumoniae NCTC 9632. It counts as cell-based. Particulars: Klebsiella pneumoniae, NCTC9632, 17 h, read-out: Minimal Inhibitory Concentration (MIC). In short, it runs like this: as §1
The test system of experiment [5] is Ps. aeruginosa NCTC 10490. Briefly: MIC by agar dilution, Ps. aeruginosa NCTC 10490. It counts as cell-based. Conditions: Pseudomonas aeruginosa, NCTC10490, 17 h, Mueller-Hinton agar, read-out: Minimal Inhibitory Concentration (MIC). In short, it runs like this: as §1
Experiment [6] deals with Gram-negative bacteria such as Pseudomonas aeruginosa. Particulars: background art; cited from earlier work.
The next experiment deals with Ent. aerogenes IFO 12979. In words: MIC by agar dilution, Ent. aerogenes IFO 12979. Conditions: Klebsiella aerogenes, IFO12979, 17 h, Mueller-Hinton agar, read-out: Minimal Inhibitory Concentration (MIC). The format is cell-based. In short, it runs like this: as §1
For a further experiment, the system named is P. vulgaris NCTC 8313. Briefly: MIC by agar dilution, P. vulgaris NCTC 8313. The format is cell-based. Conditions: Proteus vulgaris, NCTC8313, 17 h, read-out: Minimal Inhibitory Concentration (MIC). In short, it runs like this: as §1

Molecules are shown by their SMILES. Values after ≈ are worked out from the molar mass of the structure shown. Read-outs that look alike come from different tables or passages of the source.

Regarding `CC(C)(O/N=C(\C(=O)N[C@@H]1C(=O)N2C(C(=O)[O-])=C(C[n+]3ccccc3)CS[C@H]12)c1csc(N)n1)C(=O)O` [CAZ, Ceftazidime, reference compound], in experiment [1], the “antibacterial activities against Gram-positive bacteria, in particular Staphylococcus species” value is “relatively inferior antibacterial activities”. Also, the MIC with E. coli NIHJ JC-2 was 0.2 µg/mL (≈ 0.366 µM); with E. coli DY-1 it was 0.05 µg/mL (≈ 0.0915 µM); with M. morganii DY-1, 0.1 µg/mL (≈ 0.183 µM); in experiment [2] it was 0.025 µg/mL (≈ 0.0457 µM); in the experiment on Staph. aureus C-5216, 25 µg/mL (≈ 45.7 µM); in the experiment on Ent. cloacae IFO 13535, 1.56 µg/mL (≈ 2.85 µM). Besides, the MIC in the experiment on Staph. aureus C-5113 was found to be 25 µg/mL (≈ 45.7 µM); with Staph. aureus C-57, 100 µg/mL (≈ 183 µM); in experiment [3], 0.78 µg/mL (≈ 1.43 µM); in experiment [4] it was 0.78 µg/mL (≈ 1.43 µM); with Staph. aureus ATCC 6538P, 1.56 µg/mL (≈ 2.85 µM); with Prov. stuartii IFO 12930 it was 0.025 µg/mL (≈ 0.0457 µM). The MIC was determined as 1.56 µg/mL (≈ 2.85 µM) with B. subtilis ATCC 6633; 0.1 µg/mL (≈ 0.183 µM) in the experiment with E. coli No. 29 (NO.29, 17 h); 1.56 µg/mL (≈ 2.85 µM) in the experiment on Ps. aeruginosa DY-2; 6.25 µg/mL (≈ 11.4 µM) in the experiment with Staph. aureus Smith; 0.05 µg/mL (≈ 0.0915 µM) with K. pneumoniae NCTC 9632; 0.1 µg/mL (≈ 0.183 µM) in [5]. Further, the MIC with Ent. aerogenes IFO 12979 amounted to 0.05 µg/mL (≈ 0.0915 µM); with P. vulgaris NCTC 8313, 0.025 µg/mL (≈ 0.0457 µM). The “antibacterial activities against Gram-negative bacteria such as Pseudomonas aeruginosa” value in experiment [6] was “superior antibacterial activities”.

Consider `CO/N=C(\C(=O)N[C@@H]1C(=O)N2C(C(=O)O)=C(COC(C)=O)CS[C@H]12)c1csc(N)n1` [CTX, Cefotaxime, reference compound], for which the “antibacterial activities against Gram-positive bacteria, in particular Staphylococcus species” value in experiment [1] is “have antibacterial activities against Staphylococcus species”. Further, the MIC in the experiment with E. coli NIHJ JC-2 (E. coli NIHJ JC-2, agar dilution, Mueller-Hinton agar) was 0.05 µg/mL (≈ 0.11 µM); in the experiment with E. coli DY-1 (E. coli DY-1, agar dilution, Mueller-Hinton agar), ≤ 0.006 µg/mL; with M. morganii DY-1 (M. morganii DY-1, agar dilution, Mueller-Hinton agar), 0.025 µg/mL (≈ 0.0549 µM); in [2] (Ser. marcescens IFO 12648, agar dilution, Mueller-Hinton agar), 0.05 µg/mL (≈ 0.11 µM); in the experiment with Staph. aureus C-5216, 1.56 µg/mL (≈ 3.43 µM); in the experiment on Ent. cloacae IFO 13535 (Ent. cloacae IFO 13535, agar dilution, Mueller-Hinton agar), 0.78 µg/mL (≈ 1.71 µM). In addition, the MIC in the experiment on Staph. aureus C-5113 was 3.13 µg/mL (≈ 6.87 µM); in the experiment with Staph. aureus C-57, 100 µg/mL (≈ 220 µM); in experiment [3], 6.25 µg/mL (≈ 13.7 µM); in experiment [4] (S. epidermidis ATCC 12228, agar dilution, Mueller-Hinton agar), 0.1 µg/mL (≈ 0.22 µM); in the experiment with Staph. aureus ATCC 6538P (Staph. aureus ATCC 6538P, agar dilution, Mueller-Hinton agar) it was 0.78 µg/mL (≈ 1.71 µM); with Prov. stuartii IFO 12930, ≤ 0.006 µg/mL. Also, the MIC in the experiment with B. subtilis ATCC 6633 (B. subtilis ATCC 6633, agar dilution, Mueller-Hinton agar) was 0.1 µg/mL (≈ 0.22 µM); with E. coli No. 29 (17 h, E. coli No. 29, agar dilution, Mueller-Hinton agar) it was ≤ 0.006 µg/mL; in the experiment on Ps. aeruginosa DY-2 (Ps. aeruginosa DY-2, agar dilution, Mueller-Hinton agar), 12.5 µg/mL (≈ 27.4 µM); with Staph. aureus Smith, 1.56 µg/mL (≈ 3.43 µM); in the experiment on K. pneumoniae NCTC 9632 (K. pneumoniae NCTC 9632, agar dilution, Mueller-Hinton agar) it was 0.025 µg/mL (≈ 0.0549 µM); in experiment [5] it was 0.78 µg/mL (≈ 1.71 µM). For the same molecule, the MIC in the experiment with Ent. aerogenes IFO 12979 was 0.025 µg/mL (≈ 0.0549 µM); in the experiment on P. vulgaris NCTC 8313 (P. vulgaris NCTC 8313, agar dilution, Mueller-Hinton agar), ≤ 0.006 µg/mL. Moreover, in [6], the “antibacterial activities against Gram-negative bacteria such as Pseudomonas aeruginosa” value is recorded as “less effective antibacterial activities”.
